# Activity calls are given as the source filed them.
# Legend:
# [1] = Luminescence Cell-Based Dose Retest to Confirm Inhibitors of Cancer Stem Cells. [Related pubchem assays (depositor defined):AID2717, AID2721]; format: functional; conditions: Homo sapiens
# [2] = biological target: T1, Ubiquitin-conjugating enzyme E2 N (Homo sapiens, UniProt P61088); format: functional;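 note: Dose-response confirmation in a TR-FRET assay detecting UBC13-driven polyubiquitin chain formation, inhibition measured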
# T1 sequence (P61088 whole entry): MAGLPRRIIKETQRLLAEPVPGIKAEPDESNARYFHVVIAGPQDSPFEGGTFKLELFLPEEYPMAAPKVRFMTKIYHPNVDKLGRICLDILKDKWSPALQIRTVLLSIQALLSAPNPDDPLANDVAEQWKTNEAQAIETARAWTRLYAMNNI
# [3] = biological target: T2, Polyadenylate-binding protein 1 (Homo sapiens, UniProt P11940); assay: MLLE binding blockers, Cy5 peptide tracer – biochemical, fluorescence polarization, Cy5-PAM2 peptide, secondary, miRNA deadenylation inhibitor project, dose response (AID 602260); format: functional; conditions: read-out: IC50_Mean
# [4] = biological target: T2, Polyadenylate-binding protein 1; assay: MLLE domain peptide-binding blockers, IC50 – biochemical, fluorescence polarization, FITC-PAM2 peptide, dose response (AID 602259); format: functional; conditions: read-out: IC50_Mean
# [5] = biological target: FAD-linked sulfhydryl oxidase ALR (Homo sapiens, UniProt P55789); assay: ALR-catalysed DTT oxidation blockers – biochemical, H2O2 detection, luminescence, cherry-pick, dose response (AID 493248)
# [6] = biological target: T3, Leucine aminopeptidase (Plasmodium falciparum 3D7, UniProt Q8IL11); assay: P. falciparum M17LAP inhibitors, primary screen, biochemical, fluorogenic H-Leu-NHMec substrate, 1536-well (AID 1619); format: functional
# T3 sequence (Q8IL11 whole entry): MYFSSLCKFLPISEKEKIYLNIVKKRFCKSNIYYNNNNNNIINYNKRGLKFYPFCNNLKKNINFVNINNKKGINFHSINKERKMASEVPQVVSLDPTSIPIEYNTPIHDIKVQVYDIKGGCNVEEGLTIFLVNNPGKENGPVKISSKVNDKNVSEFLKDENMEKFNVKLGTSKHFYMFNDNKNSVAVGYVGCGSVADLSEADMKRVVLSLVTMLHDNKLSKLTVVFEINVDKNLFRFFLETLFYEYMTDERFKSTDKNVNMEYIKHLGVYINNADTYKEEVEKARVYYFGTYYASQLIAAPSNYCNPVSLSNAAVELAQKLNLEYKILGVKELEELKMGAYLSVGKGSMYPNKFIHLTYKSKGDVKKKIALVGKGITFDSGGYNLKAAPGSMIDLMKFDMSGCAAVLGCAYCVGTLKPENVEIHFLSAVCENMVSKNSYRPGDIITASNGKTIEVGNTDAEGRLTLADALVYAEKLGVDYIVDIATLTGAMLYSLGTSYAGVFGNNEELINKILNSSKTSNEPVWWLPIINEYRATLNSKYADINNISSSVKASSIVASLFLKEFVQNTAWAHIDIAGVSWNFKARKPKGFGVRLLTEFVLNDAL
# [7] = biological target: T4, RNA-binding protein pos-1 (Caenorhabditis elegans, UniProt G5EF15); assay: disruptors of C. elegans POS-1 RNA interaction – biochemical, fluorescence polarization, dose response (AID 1964);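 note: purified POS-1 fused to maltose binding protein made in E. coli; potency of compounds blocking POS-1 binding to fluorescent RNA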
# T4 sequence (G5EF15 whole entry): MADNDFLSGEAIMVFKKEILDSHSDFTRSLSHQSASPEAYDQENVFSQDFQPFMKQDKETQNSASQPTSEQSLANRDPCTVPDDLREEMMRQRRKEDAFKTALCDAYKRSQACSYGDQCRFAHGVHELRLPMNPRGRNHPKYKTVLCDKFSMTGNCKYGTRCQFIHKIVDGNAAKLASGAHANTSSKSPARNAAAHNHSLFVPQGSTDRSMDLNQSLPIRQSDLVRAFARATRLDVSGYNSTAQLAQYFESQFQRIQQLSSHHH
# [8] = tested on: INS1; assay: INS-1E survival protection against cytokine death – cell-based, luminescence, retest, dose response (AID 449756); format: functional; conditions: Rattus norvegicus;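 note: cell death triggered by IL-1 beta plus TNF-alpha plus IFN-gamma mixture; protective hits raise ATP signal compared with cytokine alone wells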
# [9] = HIV-1 AD8 envelope cell-cell fusion blockers – cherry-pick, dose response (AID 652062); format: functional, cell-based;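 note: luciferase signal from cell-cell fusion driven by HIV-1 clade B AD8 Env; potency is for inhibitors of fusion seen as a drop in luminescence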
# [10] = biological target: T5, High affinity choline transporter 1 (Homo sapiens, UniProt Q9GZV3); assay: human choline transporter blockers, potency – cell-based, 5-point CRC, membrane potential dye, dose response (AID 504840); format: functional
# T5 sequence (Q9GZV3 whole entry): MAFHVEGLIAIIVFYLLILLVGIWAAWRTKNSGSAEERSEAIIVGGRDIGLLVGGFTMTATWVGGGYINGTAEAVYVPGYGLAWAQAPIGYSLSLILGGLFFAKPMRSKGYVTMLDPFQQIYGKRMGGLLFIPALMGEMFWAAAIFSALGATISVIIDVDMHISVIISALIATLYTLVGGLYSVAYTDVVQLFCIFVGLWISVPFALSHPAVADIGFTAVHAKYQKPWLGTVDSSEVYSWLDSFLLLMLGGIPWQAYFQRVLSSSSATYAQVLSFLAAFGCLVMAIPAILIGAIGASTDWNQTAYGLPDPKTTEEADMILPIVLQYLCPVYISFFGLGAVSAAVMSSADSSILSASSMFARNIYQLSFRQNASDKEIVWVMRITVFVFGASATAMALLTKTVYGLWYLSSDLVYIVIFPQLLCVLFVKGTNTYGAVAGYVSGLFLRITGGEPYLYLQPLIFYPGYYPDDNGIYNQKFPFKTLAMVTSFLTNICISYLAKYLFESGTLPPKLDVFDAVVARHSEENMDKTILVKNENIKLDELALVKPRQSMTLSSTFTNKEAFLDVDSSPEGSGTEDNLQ
# [11] = biological target: T6, Carboxy-terminal domain RNA polymerase II polypeptide A small phosphatase 1 (Homo sapiens, UniProt Q9GZU7); assay: CTDSP1 inhibitors, concentration-response, biochemical, absorbance readout, ultra-high-throughput screen actives (AID 540297); format: functional
# T6 sequence (Q9GZU7 whole entry): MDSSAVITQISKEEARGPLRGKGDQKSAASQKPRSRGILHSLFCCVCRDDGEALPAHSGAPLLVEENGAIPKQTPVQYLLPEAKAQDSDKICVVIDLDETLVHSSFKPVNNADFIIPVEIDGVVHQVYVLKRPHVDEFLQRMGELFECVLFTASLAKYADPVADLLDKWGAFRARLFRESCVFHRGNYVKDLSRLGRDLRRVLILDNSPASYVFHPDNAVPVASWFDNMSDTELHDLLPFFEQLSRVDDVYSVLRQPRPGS
# [12] = biological target: Cytochrome P450 2D6 (Homo sapiens, UniProt P10635);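 note: CYP2D6 member of a cytochrome P450 panel assay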
# [13] = biological target: Nonstructural protein 1 (Influenza A virus, UniProt Q194T2); format: functional, Influenza A virus (A/California/07/2009(H1N1))
# [14] = biological target: T7, Rac GTPase-activating protein 1 (Homo sapiens, UniProt Q9H0H5); assay: blockers of MgcRacGAP-driven Rac1 GTP hydrolysis – biochemical, ADP Hunter fluorescence, primary and confirmatory, confirmation (AID 624330); format: functional
# T7 sequence (Q9H0H5 whole entry): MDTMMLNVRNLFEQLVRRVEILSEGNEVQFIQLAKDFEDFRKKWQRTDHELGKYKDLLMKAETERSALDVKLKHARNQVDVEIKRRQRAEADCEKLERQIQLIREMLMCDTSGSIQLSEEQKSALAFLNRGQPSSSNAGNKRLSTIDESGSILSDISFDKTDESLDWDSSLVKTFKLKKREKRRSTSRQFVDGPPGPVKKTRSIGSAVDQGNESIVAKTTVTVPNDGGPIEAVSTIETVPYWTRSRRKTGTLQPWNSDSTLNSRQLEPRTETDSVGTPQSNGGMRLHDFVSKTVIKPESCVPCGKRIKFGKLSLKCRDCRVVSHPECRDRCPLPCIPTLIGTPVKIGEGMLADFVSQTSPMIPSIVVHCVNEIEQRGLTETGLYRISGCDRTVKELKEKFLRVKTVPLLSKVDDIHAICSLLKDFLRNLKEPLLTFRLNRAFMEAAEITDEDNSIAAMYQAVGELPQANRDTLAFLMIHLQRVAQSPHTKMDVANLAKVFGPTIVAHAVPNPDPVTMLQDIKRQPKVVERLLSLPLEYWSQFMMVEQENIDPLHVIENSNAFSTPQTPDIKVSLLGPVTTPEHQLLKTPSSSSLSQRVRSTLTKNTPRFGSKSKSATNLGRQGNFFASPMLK
# [15] = HEK-293T viability loss after treatment – luminescence, T-cell screen hits, cytotoxicity control for TCR NF-kB inhibitor project, dose response (AID 489026); format: functional, cell-based;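 note: cells exposed to compound about 14 hours before the viability readout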
# [16] = Luminescence Cell-Based Dose Response HTS to Identify Inhibitors of 5'UTR Stem-Loop Driven Prion Protein mRNA Translation in H4 Neuroglioblastoma Cells. [Related pubchem assays: 1827 (Project Summary), 1813 (Primary HTS)]; format: functional
# [17] = viability of PTEN-deleted HCT116 cells – cell-based, HCT116 PTEN knockout, dose response (AID 1047); format: functional;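 note: HCT116 colon tumor cells with PTEN knocked out; cells exposed to compound for 60 hours before readout; potency for loss of cell viability measured by luminescence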
# [18] = viability of HCT116 lacking mutant beta-catenin – cell-based, human colon tumor, dose response (AID 1045); format: functional;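 note: HCT116 colon tumor cells with beta catenin knocked out; cells exposed to compound for 60 hours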
# [19] = reduction of Shn3 3'UTR-driven luciferase in osteoblasts – cell-based, Clone20 osteoblasts, firefly luciferase, cherry-picked, dose response (AID 624132); format: functional;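 note: firefly luciferase luminescence from reporter carrying the Shn3 3'UTR in osteoblasts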
# [20] = loss of viability in HepG2 cells – cell-based, CellTiter-Glo, cherry-picked, cytotoxicity control for Shn3 inhibitor project, dose response (AID 624134); format: functional
# [21] = non-specific 3'UTR reporter inhibition in Clone20-Shn3RL – cell-based, Renilla luciferase, cherry-picked, counter-screen for Shn3 inhibitor project, dose response (AID 624133); format: functional
# Sequence of Nonstructural protein 1 (Q194T2 whole entry): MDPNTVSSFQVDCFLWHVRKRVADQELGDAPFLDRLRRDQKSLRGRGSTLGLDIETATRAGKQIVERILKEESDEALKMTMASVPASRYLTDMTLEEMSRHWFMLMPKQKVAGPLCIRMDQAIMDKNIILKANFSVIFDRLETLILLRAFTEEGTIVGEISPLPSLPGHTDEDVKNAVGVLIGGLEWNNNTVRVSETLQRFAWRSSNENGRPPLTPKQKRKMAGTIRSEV
# T2 sequence (P11940 whole entry, the tested form may be a part): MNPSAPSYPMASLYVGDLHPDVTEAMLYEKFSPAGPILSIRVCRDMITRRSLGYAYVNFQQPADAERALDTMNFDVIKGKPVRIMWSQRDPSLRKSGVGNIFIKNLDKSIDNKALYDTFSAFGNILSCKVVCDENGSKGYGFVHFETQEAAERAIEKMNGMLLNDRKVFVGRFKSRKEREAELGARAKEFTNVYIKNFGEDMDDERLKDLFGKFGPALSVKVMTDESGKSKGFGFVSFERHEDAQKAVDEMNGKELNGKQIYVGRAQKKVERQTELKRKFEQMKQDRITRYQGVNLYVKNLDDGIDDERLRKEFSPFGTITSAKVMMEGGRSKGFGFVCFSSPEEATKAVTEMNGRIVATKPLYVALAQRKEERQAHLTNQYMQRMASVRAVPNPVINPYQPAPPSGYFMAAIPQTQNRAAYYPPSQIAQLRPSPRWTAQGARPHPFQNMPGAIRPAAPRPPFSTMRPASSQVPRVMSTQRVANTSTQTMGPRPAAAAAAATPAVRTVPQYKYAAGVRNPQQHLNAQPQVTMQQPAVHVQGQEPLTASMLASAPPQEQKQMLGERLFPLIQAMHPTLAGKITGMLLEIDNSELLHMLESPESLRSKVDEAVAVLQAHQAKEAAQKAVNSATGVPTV
# Sequence of FAD-linked sulfhydryl oxidase ALR (P55789 whole entry): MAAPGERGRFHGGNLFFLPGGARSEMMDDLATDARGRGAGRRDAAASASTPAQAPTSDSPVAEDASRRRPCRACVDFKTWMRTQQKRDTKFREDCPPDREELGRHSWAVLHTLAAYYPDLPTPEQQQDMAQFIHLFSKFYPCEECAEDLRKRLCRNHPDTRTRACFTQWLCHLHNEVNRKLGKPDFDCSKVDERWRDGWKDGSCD
# Sequence of Cytochrome P450 2D6 (P10635 whole entry): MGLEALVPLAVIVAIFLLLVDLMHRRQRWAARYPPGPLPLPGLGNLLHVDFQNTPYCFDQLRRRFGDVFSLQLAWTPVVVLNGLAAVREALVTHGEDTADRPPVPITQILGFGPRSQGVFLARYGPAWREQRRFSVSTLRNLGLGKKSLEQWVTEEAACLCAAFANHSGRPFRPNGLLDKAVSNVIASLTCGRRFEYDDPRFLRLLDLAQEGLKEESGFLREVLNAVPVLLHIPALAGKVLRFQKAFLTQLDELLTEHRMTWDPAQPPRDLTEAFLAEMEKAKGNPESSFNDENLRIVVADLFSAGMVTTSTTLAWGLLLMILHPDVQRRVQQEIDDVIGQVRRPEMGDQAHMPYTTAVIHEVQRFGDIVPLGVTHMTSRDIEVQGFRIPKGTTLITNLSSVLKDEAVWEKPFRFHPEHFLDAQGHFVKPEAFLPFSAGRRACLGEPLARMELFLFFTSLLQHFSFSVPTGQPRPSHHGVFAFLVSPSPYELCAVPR
smiles,measurement,setting,value
COc1ccc(-c2sc3cc4c(cc3c2C#CC2(N)CCCCC2)OCO4)cc1,AC50,[1],1.48 µM (active)
same,IC50,[2],> 20 µM (inactive)
O=C(NC(=S)Nc1cccc(Cl)c1N1CCOCC1)c1cccs1,IC50,[3],> 66 µM (inactive)
same,IC50,[4],> 66 µM (inactive)
Cc1ccn2cc(-c3cccc(NC(=O)CCC(=O)O)c3)nc2c1,AC50,[5],0.618 µM (active)
COc1cc(O)c(C(CCN2CCCCC2)c2ccc(N(C)C)cc2)c(OC)c1 (configuration not stated),AC50,[5],1.83 µM (active)
O=C(c1ccc2c(c1)OCO2)N1CCN=C1SCc1cccnc1,AC50,[5],0.076 µM (active)
O=C(O)C12CC3CC(C1)CC(n1ncc(NCc4ccccc4)c(Cl)c1=O)(C3)C2,IC50,[6],90 µM (active)
Cc1cc2ncn(-c3ncccc3[N+](=O)[O-])c2cc1C,IC50,[3],> 66 µM (inactive)
same,IC50,[4],> 66 µM (inactive)
CCOc1ccc(NC(=O)C2CC=CCC2C(=O)O)cc1 (configuration not stated),IC50,[6],10.5 µM (active)
CC(=O)Nc1ccc(S(=O)(=O)NNC(=O)C(=O)NNc2ccccn2)cc1,EC50,[7],> 300 µM (not active)
same,IC50,[2],> 20 µM (inactive)
Cc1ccccc1OCCCCn1cnc2ccccc21,AC50,[8],6.87 µM (active)
same,AC50,[9],4.16 µM (active)
O=[N+]([O-])c1ccc2[nH]c3c(c2c1)CCCC3,AC50,[5],15.6 µM (active)
COc1ccc(/C=C2\N=C(c3ccccc3)N(c3ccc(C(=O)O)cc3)C2=O)cc1OC,IC50,[10],12.6 µM (active)
COc1cc(/C=C/C(=O)Nc2nnc(CC(C)(C)C)s2)cc(OC)c1OC,IC50,[3],> 66 µM (inactive)
same,IC50,[4],> 66 µM (inactive)
Cc1nc(SCC(=O)NC(=O)NC2CCCCC2)nc(C)c1C,IC50,[10],12.7 µM (active)
O=C(COC(=O)c1ccccc1Nc1cccc(C(F)(F)F)c1)NCc1ccco1,IC50,[11],6.38 µM (active)
same,AC50,[12],10 µM (inconclusive)
CCOc1ccc(NC(=O)CSc2nnc(CCNC(=O)c3ccc(OC)cc3)n2CC)cc1,IC50,[6],8.71 µM (active)
CCCc1cc(C(=O)NN=C(S)NCc2ccccc2)cs1,IC50,[10],12.9 µM (active)
CCOc1ccc(-c2nc(C#N)c(N3CCN(Cc4ccccc4)CC3)o2)cc1,IC50,[13],> 100 µM (active)
Cc1oc(C(C)(C)C)cc1C(=O)NC(Cc1ccccc1)C(=O)O (configuration not stated),IC50,[6],12.7 µM (active)
O=[N+]([O-])c1ccc(S(=O)(=O)Nc2ccc3c(c2)OCCO3)cc1,IC50,[3],> 66 µM (inactive)
same,IC50,[4],> 66 µM (inactive)
Cc1cc(C)c(NC(=O)CN2C(=O)NC3(CCCCC3)C2=O)c(C)c1,IC50,[6],19.5 µM (active)
C/C(=N\NC(=N)N)c1ccccc1,IC50,[10],13.5 µM (active)
COc1ccc(N=Nc2cc(OC)c(N)cc2OC)cc1,IC50,[13],35.3 µM (active)
same,IC50,[14],35.2 µM (active)
CCOc1ccccc1C(O)C1=CC(=O)c2ccccc2C1=O (configuration not stated),IC50,[11],4.16 µM (active)
CC(=O)N(C)c1ccc(OCC(O)CN(c2ccccc2C)S(=O)(=O)c2ccc(C)cc2)cc1 (configuration not stated),IC50,[10],11.8 µM (active)
Cc1ccccc1-c1nc(S(=O)(=O)c2ccccc2)c(N2CCCC2)o1,IC50,[3],> 66 µM (inactive)
same,IC50,[4],> 66 µM (inactive)
Cc1ccnc2c1ccc1cccnc12,IC50,[15],> 80 µM (inactive)
same,IC50,[13],0.736 µM (active)
Cn1c(=O)c2c(nc(N/N=C/c3ccncc3)n2Cc2ccccc2)n(C)c1=O,AC50,[5],0.628 µM (active)
O=C(Cn1cncn1)N/N=C/c1cc([N+](=O)[O-])ccc1O,IC50,[13],3.9 µM (active)
N#CC(c1ccc(Cl)cc1)c1ccc2c(C(F)(F)F)cc(C(F)(F)F)nc2n1 (configuration not stated),EC50,[16],8.03 µM (active)
same,EC50,[17],0.349 µM (active)
same,EC50,[18],0.321 µM (active)
same,AC50,[8],0.54 µM (active)
same,AC50,[19],0.487 µM (active)
same,AC50,[20],2.97 µM (active)
same,AC50,[21],1.38 µM (active)
